Measured values published in the supplement of paper PMC10331698.
± gives the standard deviation of the averaged measurements.

What was measured:
Assay in all cases: level (log10 ratio to DMSO vehicle control); higher = higher biomarker level / cell amount than vehicle control
[1] = compound: C=C(C)C(=O)OCCC(F)(F)C(F)(F)C(F)(F)C(F)(F)C(F)(F)C(F)(F)C(F)(F)C(F)(F)F [8:2 Fluorotelomer methacrylate] (in DMSO)
Description: (§1)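 BioMAP Diversity Plus panel of 12 human primary cell co-culture systems (3C, 4H, LPS, SAg, BT, BF4T, BE3C, CASM3C, HDF3CGF, KF3CT, MyoF, Mphg). Compounds were added 1 h before stimulation and left for 24 h (MyoF 48 h; BT 72 h for soluble read-outs or 6 d for IgG). Biomarkers were read by ELISA, cytotoxicity by SRB, PBMC viability and proliferation by Alamar Blue. Each well value was divided by the mean of 8 DMSO control wells on the same plate and log10 transformed; duplicate blinded samples were tested at 4 concentrations.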

[2] = compound: C[C@@H]1C[C@H]2[C@@H]3CCC4=CC(=O)C=C[C@]4(C)[C@@]3(F)[C@@H](O)C[C@]2(C)[C@@]1(O)C(=O)COP(=O)(O)O [Dexamethasone sodium phosphate] (in DMSO)
Description: as §1

[3] = compound: NS(=O)(=O)C(F)(F)C(F)(F)C(F)(F)C(F)(F)C(F)(F)C(F)(F)C(F)(F)C(F)(F)F [Perfluorooctanesulfonamide] (in DMSO)
Description: as §1

[4] = compound: O=C(O)C(F)(F)C(F)(F)C(F)(F)C(F)(F)C(=O)O [Octafluoroadipic acid] (in DMSO)
Description: as §1

[5] = compound: O=S(=O)(O)C(F)(F)C(F)(F)C(F)(F)C(F)(F)C(F)(F)C(F)(F)C(F)(F)F [Perfluoroheptanesulfonic acid] (in DMSO)
Description: as §1

[6] = compound: OCC(F)(F)C(F)(F)C(F)(F)C(F)F [1H,1H,5H-Perfluoropentanol] (in DMSO)
Description: as §1

Row | Test System | level (log10) ([1]; 6700 nM) | level (log10) ([1]; 20000 nM) | level (log10) ([2]; 1500 nM) | level (log10) ([2]; 4400 nM) | level (log10) ([2]; 13000 nM) | level (log10) ([2]; 40000 nM) | level (log10) ([3]; 6700 nM) | level (log10) ([3]; 20000 nM) | level (log10) ([4]; 6700 nM) | level (log10) ([4]; 20000 nM) | level (log10) ([4]; 60000 nM) | level (log10) ([5]; 1500 nM) | level (log10) ([5]; 4400 nM) | level (log10) ([5]; 13000 nM) | level (log10) ([5]; 40000 nM) | level (log10) ([6]; 6700 nM) | level (log10) ([6]; 20000 nM) | level (log10) ([6]; 60000 nM)
1 | BE3C:CXCL9/MIG | -0.01 ± 0.014 | -0.0095 ± 0.022 | -0.0065 ± 0.019 | 0.003 ± 0.02 | -0.01 ± 0.014 | -0.0085 ± 0.00071 | -0.0015 ± 0.0021 | 0.013 ± 0.013 | 0.0105 ± 0.013 | 0.012 | 0.0075 ± 0.016 | -0.011 ± 0.02 | -0.009 ± 0.025 | -0.006 ± 0.013 | -0.006 ± 0.016 | -0.0075 ± 0.012 | 0.0135 ± 0.0092 | 0.013 ± 0.018
2 | BE3C:CXCL10/IP-10 | -0.0005 ± 0.018 | -0.0105 ± 0.028 | 0.0215 ± 0.021 | 0.014 ± 0.028 | 0 ± 0.02 | -0.0035 ± 0.016 | -0.142 ± 0.0078 | -0.414 ± 0.0028 | -0.0035 ± 0.0035 | -0.002 ± 0.011 | 0.017 ± 0.023 | 0.0075 ± 0.0035 | 0.0055 ± 0.0078 | -0.01 ± 0.024 | -0.039 ± 0.016 | -0.0015 ± 0.016 | 0.005 ± 0.017 | 0.0165 ± 0.042
3 | BE3C:CXCL11/I-TAC | 0.0215 ± 0.053 | 0.025 ± 0.078 | 0 ± 0.018 | 0.0145 ± 0.0021 | -0.0175 ± 0.04 | -0.0215 ± 0.0078 | -0.0565 ± 0.013 | -0.183 ± 0.06 | -0.0025 ± 0.0078 | 0.0085 ± 0.012 | 0.0085 ± 0.0078 | -0.0095 ± 0.069 | 0.021 ± 0.038 | 0.0255 ± 0.011 | 0.0495 ± 0.025 | 0.003 ± 0.017 | 0.0165 ± 0.028 | 0.0315 ± 0.046
4 | BE3C:EGFR | -0.007 ± 0.02 | -0.01 ± 0.031 | 0.008 ± 0.042 | -0.0035 ± 0.013 | -0.011 ± 0.0071 | -0.0145 ± 0.005 | -0.0005 ± 0.00071 | -0.044 ± 0.0014 | -0.012 ± 0.017 | -0.0015 ± 0.005 | 0.0105 ± 0.016 | 0.019 ± 0.025 | -0.008 ± 0.0042 | -0.002 ± 0.023 | -0.012 ± 0.038 | -0.008 ± 0.0099 | 0.0105 ± 0.011 | 0.032 ± 0.065
5 | BE3C:HLA-DR | -0.004 ± 0.021 | 0.0085 ± 0.033 | 0.0175 ± 0.026 | -0.0205 ± 0.033 | 0.0195 ± 0.011 | 0.035 ± 0.017 | -0.0975 ± 0.013 | -0.136 ± 0.011 | 0 ± 0.021 | 0.0045 ± 0.018 | 0.012 ± 0.0028 | 0.01 ± 0.014 | -0.013 ± 0.016 | -0.01 ± 0.021 | -0.028 ± 0.033 | -0.017 ± 0.011 | -0.0095 ± 0.016 | 0.019 ± 0.023
6 | BE3C:IL-1alpha | -0.018 ± 0.02 | -0.0005 ± 0.0078 | -0.025 ± 0.0028 | -0.054 ± 0.0028 | -0.0395 ± 0.0092 | -0.0225 ± 0.036 | -0.005 ± 0.023 | -0.066 ± 0.017 | 0.0155 ± 0.0064 | 0.009 ± 0.023 | -0.031 ± 0.0028 | 0.0275 ± 0.005 | 0.006 | 0.001 ± 0.0099 | 0.039 ± 0.03 | -0.0275 ± 0.0064 | -0.0155 ± 0.018 | 0.0035 ± 0.023
7 | BF4T:CCL2/MCP-1 | -0.0005 ± 0.028 | -0.051 ± 0.031 | -0.0085 ± 0.019 | -0.0165 ± 0.0035 | -0.017 ± 0.0014 | -0.0135 ± 0.018 | -0.084 ± 0.0071 | -0.0565 ± 0.018 | 0.0145 ± 0.012 | -0.011 | 0.0225 ± 0.057 | 0.009 ± 0.041 | 0 ± 0.013 | -0.092 ± 0.028 | 0.016 ± 0.014 | -0.0175 ± 0.036 | 0.0495 ± 0.023 | 0.0305 ± 0.074
8 | BF4T:CCL26/Eotaxin-3 | -0.02 ± 0.0099 | -0.069 ± 0.013 | -0.0755 ± 0.043 | -0.134 ± 0.086 | -0.115 ± 0.012 | -0.122 ± 0.03 | -0.117 ± 0.017 | -0.169 ± 0.014 | 0.0055 ± 0.025 | -0.007 ± 0.042 | 0.009 ± 0.04 | 0.053 ± 0.05 | 0.01 | -0.0715 ± 0.011 | -0.069 ± 0.058 | 0.0125 ± 0.059 | 0.0235 ± 0.005 | 0.049 ± 0.044
9 | BF4T:CD54/ICAM-1 | -0.023 ± 0.0099 | 0.001 ± 0.0099 | -0.003 ± 0.021 | -0.0105 ± 0.011 | -0.0205 ± 0.0021 | -0.0005 ± 0.015 | -0.029 ± 0.0014 | -0.06 ± 0.045 | -0.001 ± 0.025 | -0.007 ± 0.017 | 0.0065 ± 0.029 | 0.009 ± 0.011 | 0.004 ± 0.017 | -0.0155 ± 0.0035 | 0.0125 ± 0.016 | -0.0035 ± 0.019 | 0.01 ± 0.013 | 0.02 ± 0.021
10 | BF4T:CD90 | -0.0165 ± 0.015 | 0 ± 0.0099 | 0.009 ± 0.018 | -0.002 ± 0.023 | -0.005 ± 0.018 | 0.0025 ± 0.015 | -0.0275 ± 0.012 | -0.0585 ± 0.016 | 0.005 ± 0.0042 | -0.0075 ± 0.0035 | -0.006 | -0.004 ± 0.0014 | -0.004 | -0.027 ± 0.0085 | -0.0205 ± 0.013 | -0.011 ± 0.0085 | 0.0005 ± 0.00071 | 0.003 ± 0.0057
11 | BF4T:CD106/VCAM-1 | -0.0225 ± 0.00071 | -0.0495 ± 0.022 | -0.019 ± 0.011 | -0.013 ± 0.028 | -0.02 ± 0.0085 | -0.049 ± 0.0042 | -0.052 ± 0.0057 | -0.1125 ± 0.00071 | -0.01 ± 0.0014 | -0.0095 ± 0.016 | 0.002 ± 0.048 | 0.017 ± 0.024 | 0.001 ± 0.0042 | -0.0765 ± 0.0064 | -0.094 ± 0.0099 | -0.019 ± 0.085 | 0.0225 ± 0.029 | 0.021 ± 0.081
12 | BF4T:CXCL8/IL-8 | -0.026 ± 0.014 | -0.023 ± 0.021 | -0.0315 ± 0.04 | -0.0495 ± 0.046 | -0.0715 ± 0.033 | -0.0435 ± 0.00071 | 0.003 ± 0.0057 | 0.0405 ± 0.013 | 0.0435 ± 0.0021 | -0.0005 ± 0.021 | 0.013 ± 0.05 | 0.015 ± 0.014 | 0.006 ± 0.0014 | 0.049 ± 0.0014 | 0.121 ± 0.02 | 0.037 ± 0.083 | 0.0505 ± 0.07 | 0.0685 ± 0.046
13 | BF4T:IL-1alpha | -0.009 ± 0.0057 | 0.008 ± 0.016 | 0.0045 ± 0.028 | -0.001 ± 0.013 | -0.0165 ± 0.013 | 0.004 ± 0.023 | 0.0095 ± 0.012 | -0.0455 ± 0.022 | -0.003 ± 0.0014 | -0.016 ± 0.0042 | 0.002 ± 0.0014 | 0.0205 ± 0.025 | 0.0055 ± 0.005 | 0.01 ± 0.0014 | 0.0205 ± 0.016 | -0.02 ± 0.0085 | 0.03 ± 0.044 | 0.0195 ± 0.018
14 | BF4T:Keratin 8/18 | -0.019 ± 0.0028 | 0.0115 ± 0.016 | 0.011 ± 0.047 | -0.0015 ± 0.013 | -0.0105 ± 0.019 | -0.0025 ± 0.015 | -0.0085 ± 0.005 | -0.069 ± 0.023 | 0.002 ± 0.023 | -0.004 ± 0.021 | 0.004 ± 0.037 | 0.009 ± 0.025 | -0.012 ± 0.013 | -0.027 ± 0.0014 | 0.0125 ± 0.015 | -0.046 ± 0.033 | 0.006 ± 0.044 | 0.0235 ± 0.023
15 | BF4T:MMP-1 | -0.01 ± 0.0085 | 0.0055 ± 0.00071 | 0.006 ± 0.0014 | -0.012 ± 0.013 | -0.0215 ± 0.0092 | -0.0125 ± 0.0021 | 0.003 ± 0.016 | 0.0075 ± 0.019 | 0.0065 ± 0.011 | -0.0025 ± 0.015 | 0.007 ± 0.0028 | 0.0055 ± 0.0078 | -0.0055 ± 0.005 | -0.019 ± 0.0014 | 0.0225 ± 0.0092 | 0.002 ± 0.018 | 0.0095 ± 0.018 | 0.012 ± 0.033
16 | BF4T:MMP-3 | -0.0035 ± 0.019 | 0.0255 ± 0.044 | 0.0565 ± 0.083 | 0.006 ± 0.061 | -0.03 ± 0.05 | 0.0185 ± 0.033 | 0.004 ± 0.024 | 0.0845 ± 0.028 | 0.0055 ± 0.033 | -0.0055 ± 0.035 | 0.0025 ± 0.022 | 0.047 ± 0.045 | -0.015 ± 0.014 | 0.0025 ± 0.046 | 0.117 ± 0.028 | -0.0125 ± 0.0064 | -0.007 ± 0.0099 | 0.002 ± 0.021
